The test system of data set [1] is ACE. The note with it: statement of belief; cited from earlier work.
The target of a further data set is Human urinary ACE (Homo sapiens, UniProt P12821). Nature of the data set: biochemical. The settings on record: read-out: I50 value. The text has this:
The role of ACE in the pathogenesis of hypertension has prompted a search for inhibitors of the enzyme that could act as antihypertensive drugs. See for example U.S. Pat. Nos. 3,891,616, 3,947,575, 4,052,511 and 4,053,651. […]. No. 4,046,889 to Ondetti et al., issued Sept. 6, 1977, and in scientific articles by Cushman, D. W. et al., Biochemistry 16, 5484 (1977), and by Ondetti, M. et al., Science 196, 441 (1977). […]. These factors include the source of enzyme, its purity, the substrate used and its concentration, and the composition of the assay buffer. All I50 data reported herein have been performed with the same assay system and same enzyme (human urinary ACE) and with an approximately 1/2 Km level of substrate and are therefore internally consistent. Discrepancies with data obtained by other workers may be observed. Indeed such discrepancies do exist in the literature, for unknown reasons. See, for example, the I50 values for BPP9a reported by Cushman, D. W., et al., Experientia 29, 1032 (1973) and by Dorer, F. E., et al., Biochim. Biophys. Acta 429, 220 (1976).
The inhibitory potency of N^α -[3-(L-α-glutamylthio)-2-D-methyl-propanoyl]-L-proline in vitro was measured in the following assay. […] The enzyme was assayed in 0.05M Hepes buffer, pH 8.0 containing 0.1M NaCl and 0.75M Na2 SO4. […]

For data set [2], the system named is ACE. The note with it: oral, most patients; cited from earlier work.

Structures are written as SMILES.

This is an account of results in US4734420A, “Anti-hypertensive agents” (priority 1980, dated 1988).

Sequence of Human urinary ACE (P12821 30-1232 limits assumed): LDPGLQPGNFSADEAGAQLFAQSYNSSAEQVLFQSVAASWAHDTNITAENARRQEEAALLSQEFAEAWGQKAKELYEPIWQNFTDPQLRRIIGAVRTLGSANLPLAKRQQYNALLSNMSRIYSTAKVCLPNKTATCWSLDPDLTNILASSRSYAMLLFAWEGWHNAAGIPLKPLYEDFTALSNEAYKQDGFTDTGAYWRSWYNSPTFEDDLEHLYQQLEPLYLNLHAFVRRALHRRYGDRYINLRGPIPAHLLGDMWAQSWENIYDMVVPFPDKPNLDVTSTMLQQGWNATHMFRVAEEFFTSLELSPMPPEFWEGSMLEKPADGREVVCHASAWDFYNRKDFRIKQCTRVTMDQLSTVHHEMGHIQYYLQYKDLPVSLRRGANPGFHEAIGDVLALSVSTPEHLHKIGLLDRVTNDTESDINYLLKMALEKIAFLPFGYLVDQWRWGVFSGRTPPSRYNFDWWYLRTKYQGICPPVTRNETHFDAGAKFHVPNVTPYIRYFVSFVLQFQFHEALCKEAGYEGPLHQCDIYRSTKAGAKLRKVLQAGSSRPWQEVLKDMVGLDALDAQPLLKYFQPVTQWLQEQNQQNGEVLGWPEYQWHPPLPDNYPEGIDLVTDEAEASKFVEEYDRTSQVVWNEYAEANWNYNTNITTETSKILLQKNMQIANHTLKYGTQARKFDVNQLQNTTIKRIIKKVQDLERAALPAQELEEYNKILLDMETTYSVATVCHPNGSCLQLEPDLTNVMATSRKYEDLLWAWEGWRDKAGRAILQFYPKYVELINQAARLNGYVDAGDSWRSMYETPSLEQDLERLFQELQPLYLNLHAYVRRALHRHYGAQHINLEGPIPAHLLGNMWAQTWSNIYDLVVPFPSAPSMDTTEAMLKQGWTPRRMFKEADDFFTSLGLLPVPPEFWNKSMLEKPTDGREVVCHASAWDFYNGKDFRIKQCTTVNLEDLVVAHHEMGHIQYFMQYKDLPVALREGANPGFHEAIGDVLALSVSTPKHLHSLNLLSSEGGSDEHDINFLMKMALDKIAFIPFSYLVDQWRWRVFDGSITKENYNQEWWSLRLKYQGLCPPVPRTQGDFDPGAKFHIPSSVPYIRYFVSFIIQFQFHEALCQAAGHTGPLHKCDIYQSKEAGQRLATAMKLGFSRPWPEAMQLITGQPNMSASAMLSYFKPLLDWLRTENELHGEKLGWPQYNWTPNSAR

For `C[C@H](CSSC[C@@H](C)C(=O)N1CCC[C@H]1C(=O)O)C(=O)N1CCC[C@H]1C(=O)O` [disulfide], the “inhibitory activity of disulfide (dimer of SQ14225)” value in the data set on ACE [1] is “largely inactive as an inhibitor”.

`C[C@H](CSC(=O)[C@@H](N)CCC(=O)O)C(=O)N1CCC[C@H]1C(=O)O` [N^α -[3-(L-α-glutamylthio)-2-D-methyl-propanoyl]-L-proline]: the IC50 at Human urinary ACE worked out at 2.1 nM.

For `C[C@H](CS)C(=O)N1CCCC1C(=O)O` (stereo in doubt) [SQ14225, D-3-mercapto-2-methylpropanoyl-L-proline], the “stability in normal gastric and intestinal environments” value with ACE [2] was “sufficiently stable in the normal gastric and intestinal environments of most patients”.
